Broadly, the Kd is the equilibrium constant for the complex coming apart.

Test [1] deals with T1, SUR2A (Rattus norvegicus, UniProt Q63563).
T1 construct: gene Abcc9; residues S615-L933 (SUR2A^615–933; CXXHX16H motif and NBD1)
T1 sequence (Q63563 615-933): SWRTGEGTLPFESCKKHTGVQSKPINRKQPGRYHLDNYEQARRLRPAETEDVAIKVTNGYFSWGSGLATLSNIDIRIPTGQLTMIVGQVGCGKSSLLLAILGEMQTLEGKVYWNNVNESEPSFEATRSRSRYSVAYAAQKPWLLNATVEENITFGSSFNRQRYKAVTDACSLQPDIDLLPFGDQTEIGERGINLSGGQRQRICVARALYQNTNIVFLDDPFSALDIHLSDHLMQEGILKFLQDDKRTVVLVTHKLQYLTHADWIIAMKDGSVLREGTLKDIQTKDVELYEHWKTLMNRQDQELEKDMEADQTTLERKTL
As to the kind of experiment: spectrophotometric titration; stopped-flow, resonance Raman, ultrafast spectroscopy. Format: binding.

Test [2] addresses T1, SUR2A. As to the kind of experiment: UV-vis absorption titration of purified protein; koff by heme transfer to apo-myoglobin. Format: binding.

Compound `[C-]#[O+]` [carbon monoxide] had a dissociation constant (Kd) at SUR2A [1] of 0.6 ± 0.3 µM.
In the case of `C=CC1=C(C)C2=Cc3c(C=C)c(C)c4[n]3[Fe]([Cl])[n]3c(c(C)c(CCC(=O)O)c3=CC3=NC(=C4)C(C)=C3CCC(=O)O)=CC1=N2` [hemin], on SUR2A [2], the affinity, expressed as Kd, was 8 ± 0.6 µM.

Values taken from publication PMC5834611, “A mechanism for CO regulation of ion channels” (Nature Communications, 2018).
